Results taken from ChEMBL document CHEMBL1909046, “DrugMatrix in vitro pharmacology data”.

Key:
[1] = target: Beta-3 adrenergic receptor (Homo sapiens, UniProt P13945); assay: DRUGMATRIX: Adrenergic beta3 radioligand binding (ligand: [125I] Cyanopindolol); format: cell membranes, HEK293, Membrane; conditions: hek293; Not Active = under 50% inhibition at 10 µM
[2] = DRUGMATRIX: Calcium Channel Type L, Benzothiazepine radioligand binding (ligand: [3H] Diltiazem); format: cell membranes, Rattus norvegicus, Wistar, Brain, Membrane; conditions: Not Active = under 50% inhibition at 10 µM
[3] = target: Beta-1 adrenergic receptor (Homo sapiens, UniProt P08588); assay: DRUGMATRIX: Adrenergic beta1 radioligand binding (ligand: [125I] Cyanopindolol); format: cell membranes, CHO-K1, Membrane; conditions: cho-k1; Not Active = under 50% inhibition at 10 µM
[4] = target: 5-hydroxytryptamine receptor 6 (Homo sapiens, UniProt P50406); format: cell membranes, HeLa, Membrane; further: in other assays of this panel Not Active means under 50% inhibition at 10 µM
[5] = DRUGMATRIX: beta-Lactamase enzyme inhibition (substrate: Nitrocefin); set-up: species or system Bacillus cereus; conditions: Not Active = under 50% inhibition at 10 µM

Chain of 5-hydroxytryptamine receptor 6 (P50406 whole entry): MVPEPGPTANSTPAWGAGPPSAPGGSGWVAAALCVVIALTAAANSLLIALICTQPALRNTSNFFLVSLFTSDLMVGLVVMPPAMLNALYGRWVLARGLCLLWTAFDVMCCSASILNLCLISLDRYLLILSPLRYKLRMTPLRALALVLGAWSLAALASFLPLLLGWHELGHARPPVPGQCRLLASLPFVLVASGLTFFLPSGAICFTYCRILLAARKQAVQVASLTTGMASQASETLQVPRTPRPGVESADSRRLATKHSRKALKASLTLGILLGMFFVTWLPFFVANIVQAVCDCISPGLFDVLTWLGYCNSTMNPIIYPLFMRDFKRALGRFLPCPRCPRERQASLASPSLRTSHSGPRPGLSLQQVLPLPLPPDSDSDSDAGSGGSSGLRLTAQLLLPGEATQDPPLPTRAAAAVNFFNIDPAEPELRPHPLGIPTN
Chain of Beta-3 adrenergic receptor (P13945 whole entry): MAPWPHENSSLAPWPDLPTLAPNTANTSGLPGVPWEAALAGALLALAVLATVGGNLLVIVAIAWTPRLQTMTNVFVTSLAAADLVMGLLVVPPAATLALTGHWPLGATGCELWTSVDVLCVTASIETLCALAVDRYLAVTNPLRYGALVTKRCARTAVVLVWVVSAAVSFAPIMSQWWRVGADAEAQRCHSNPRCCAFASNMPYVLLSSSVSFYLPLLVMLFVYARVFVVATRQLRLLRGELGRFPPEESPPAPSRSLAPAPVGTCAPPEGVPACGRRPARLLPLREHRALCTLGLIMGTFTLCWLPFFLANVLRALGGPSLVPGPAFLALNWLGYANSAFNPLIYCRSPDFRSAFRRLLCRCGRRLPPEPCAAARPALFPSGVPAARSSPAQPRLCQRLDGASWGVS
Chain of Beta-1 adrenergic receptor (P08588 whole entry): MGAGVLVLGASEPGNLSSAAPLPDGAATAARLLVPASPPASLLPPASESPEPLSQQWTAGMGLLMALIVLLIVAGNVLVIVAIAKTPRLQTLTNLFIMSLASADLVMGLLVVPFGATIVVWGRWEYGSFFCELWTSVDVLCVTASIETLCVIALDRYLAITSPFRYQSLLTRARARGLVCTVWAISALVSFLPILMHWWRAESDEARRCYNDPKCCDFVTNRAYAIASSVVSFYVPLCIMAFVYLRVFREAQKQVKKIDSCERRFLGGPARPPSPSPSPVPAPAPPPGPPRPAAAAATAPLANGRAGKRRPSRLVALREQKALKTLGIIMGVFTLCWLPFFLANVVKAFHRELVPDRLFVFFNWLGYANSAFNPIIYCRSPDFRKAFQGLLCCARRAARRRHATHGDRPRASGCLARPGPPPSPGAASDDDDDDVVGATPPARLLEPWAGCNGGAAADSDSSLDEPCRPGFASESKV

Compound | IC50 [1] | IC50 [2] | Ki [2] | IC50 [3] | IC50 ([4]; hela) | IC50 [5] | Ki [5] | Ki [1] | Ki [3] | Ki ([4]; hela) | IC50 ([4]; read-out: IC50) | Ki ([4]; read-out: Ki) | IC50 ([2]; read-out: IC50) | Ki ([2]; read-out: Ki) | IC50 ([5]; read-out: IC50)
CC(C)Cc1ccc([C@H](C)C(=O)O)cc1 [DEXIBUPROFEN] | Not Active | Not Active | Not Active | Not Active | Not Active | Not Active | Not Active | – | – | – | – | – | – | – | –
O=C(O)CNCP(=O)(O)O [GLYPHOSATE] | Not Active | Not Active | Not Active | Not Active | Not Active | Not Active | Not Active | – | – | – | – | – | – | – | –
CO[C@H]1O[C@@H]2O[C@@]3(C)CC[C@H]4[C@H](C)CC[C@@H]([C@H]1C)[C@@]24OO3 | Not Active | Not Active | Not Active | Not Active | Not Active | Not Active | Not Active | – | – | – | – | – | – | – | –
Nc1ccc(C(=O)O)c(O)c1 [AMINOSALICYLIC ACID] | Not Active | Not Active | Not Active | Not Active | Not Active | Not Active | Not Active | – | – | – | – | – | – | – | –
Nc1nc(F)nc2c1ncn2[C@@H]1O[C@H](CO)[C@@H](O)[C@@H]1O [FLUDARABINE] | Not Active | Not Active | Not Active | Not Active | Not Active | Not Active | Not Active | – | – | – | – | – | – | – | –
CHROMIC CHLORIDE | Not Active | Not Active | Not Active | Not Active | Not Active | Not Active | Not Active | Not Active | Not Active | Not Active | – | – | – | – | –
O=C(O)CO [GLYCOLIC ACID] | Not Active | Not Active | Not Active | Not Active | Not Active | Not Active | Not Active | – | – | – | – | – | – | – | –
COC(=O)C[C@](O)(CCC(C)(C)O)C(=O)O[C@@H]1C(OC)=C[C@]23CCCN2CCc2cc4c(cc2[C@H]13)OCO4 [HARRINGTONINE] | Not Active | Not Active | Not Active | Not Active | Not Active | Not Active | Not Active | – | – | – | – | – | – | – | –
CC12CCC(CC1=O)C2(C)C (centres undefined) [CAMPHOR] | Not Active | Not Active | Not Active | Not Active | Not Active | Not Active | Not Active | – | – | – | – | – | – | – | –
CCN1CCN(C(=O)N[C@@H](C(=O)N[C@@H]2C(=O)N3[C@@H]2SC(C)(C)[C@@H]3C(=O)O)c2ccccc2)C(=O)C1=O [PIPERACILLIN] | Not Active | Not Active | Not Active | Not Active | Not Active | Not Active | Not Active | – | – | – | – | – | – | – | –
C=CCO [ALLYL ALCOHOL] | Not Active | Not Active | Not Active | Not Active | Not Active | Not Active | Not Active | – | – | – | – | – | – | – | –
O=C(O)CCc1nc(-c2ccccc2)c(-c2ccccc2)o1 [OXAPROZIN] | Not Active | Not Active | Not Active | Not Active | Not Active | Not Active | Not Active | – | – | – | – | – | – | – | –
c1ccc2sc(SSc3nc4ccccc4s3)nc2c1 [BENZOTHIAZYL DISULFIDE] | Not Active | Not Active | Not Active | Not Active | – | Not Active | Not Active | – | – | – | 5280 nM | 2450 nM | – | – | –
O=C1CN(/N=C/c2ccc([N+](=O)[O-])o2)C(=O)N1 [NITROFURANTOIN] | Not Active | Not Active | Not Active | Not Active | Not Active | Not Active | Not Active | – | – | – | – | – | – | – | –
NCC(CC(=O)O)c1ccc(Cl)cc1 (centres undefined) [BACLOFEN] | Not Active | Not Active | Not Active | Not Active | Not Active | Not Active | Not Active | – | – | – | – | – | – | – | –
OC[C@H]1O[C@@H]2O[C@H]3[C@H](O)[C@@H](O)[C@@H](O[C@H]4[C@H](O)[C@@H](O)[C@@H](O[C@H]5[C@H](O)[C@@H](O)[C@@H](O[C@H]6[C@H](O)[C@@H](O)[C@@H](O[C@H]7[C@H](O)[C@@H](O)[C@@H](O[C@H]8[C@H](O)[C@@H](O)[C@@H](O[C@H]1[C@H](O)[C@H]2O)O[C@@H]8CO)O[C@@H]7CO)O[C@@H]6CO)O[C@@H]5CO)O[C@@H]4CO)O[C@@H]3CO [BETADEX] | Not Active | Not Active | Not Active | Not Active | Not Active | Not Active | Not Active | – | – | – | – | – | – | – | –

Compound | IC50 [1] | IC50 [2] | Ki [2] | IC50 [3] | IC50 ([4]; hela) | IC50 [5] | Ki [5] | Ki [1] | Ki [3] | Ki ([4]; hela) | IC50 ([4]; read-out: IC50) | Ki ([4]; read-out: Ki) | IC50 ([2]; read-out: IC50) | Ki ([2]; read-out: Ki) | IC50 ([5]; read-out: IC50)
Cl.NC[C@H]1CC[C@H](C(=O)Oc2ccc(CCC(=O)O)cc2)CC1 [CETRAXATE HYDROCHLORIDE] | Not Active | Not Active | Not Active | Not Active | Not Active | Not Active | Not Active | – | – | – | – | – | – | – | –
O=C(NCCN1CCOCC1)c1ccc(Cl)cc1 [MOCLOBEMIDE] | Not Active | Not Active | Not Active | Not Active | Not Active | Not Active | Not Active | – | – | – | – | – | – | – | –
CARBOXYMETHYLCELLULOSE | Not Active | Not Active | Not Active | Not Active | Not Active | Not Active | Not Active | Not Active | Not Active | Not Active | – | – | – | – | –
C[C@@H]1[C@H](O)[C@@H](C)/C=C/C=C/C=C/C=C/C=C/C=C/C=C/[C@H](O[C@@H]2O[C@H](C)[C@@H](O)[C@H](N)[C@@H]2O)C[C@@H]2O[C@](O)(C[C@@H](O)C[C@@H](O)[C@H](O)CC[C@@H](O)C[C@@H](O)CC(=O)O[C@H]1C)C[C@H](O)[C@H]2C(=O)O [AMPHOTERICIN B] | Not Active | Not Active | Not Active | Not Active | Not Active | Not Active | Not Active | – | – | – | – | – | – | – | –
CCC1(c2ccccc2)C(=O)NC(=O)NC1=O [PHENOBARBITAL] | Not Active | Not Active | Not Active | Not Active | Not Active | Not Active | Not Active | – | – | – | – | – | – | – | –
C=CCN1CC[C@]23c4c5ccc(O)c4O[C@H]2/C(=N/N=C2\CC[C@@]4(O)[C@H]6Cc7ccc(O)c8c7[C@@]4(CCN6CC=C)[C@H]2O8)CC[C@@]3(O)[C@H]1C5 [NALOXONAZINE] | Not Active | Not Active | Not Active | Not Active | Not Active | Not Active | Not Active | – | – | – | – | – | – | – | –
CC(C)(C#N)c1cc(Cn2cncn2)cc(C(C)(C)C#N)c1 [ANASTROZOLE] | Not Active | Not Active | Not Active | Not Active | Not Active | Not Active | Not Active | – | – | – | – | – | – | – | –
OC[C@H]1O[C@@H]2O[C@H]3[C@H](O)[C@@H](O)[C@@H](O[C@H]4[C@H](O)[C@@H](O)[C@@H](O[C@H]5[C@H](O)[C@@H](O)[C@@H](O[C@H]6[C@H](O)[C@@H](O)[C@@H](O[C@H]7[C@H](O)[C@@H](O)[C@@H](O[C@H]1[C@H](O)[C@H]2O)O[C@@H]7CO)O[C@@H]6CO)O[C@@H]5CO)O[C@@H]4CO)O[C@@H]3CO [ALFADEX] | Not Active | Not Active | Not Active | Not Active | Not Active | Not Active | Not Active | – | – | – | – | – | – | – | –
POVIDONE | Not Active | Not Active | Not Active | Not Active | Not Active | Not Active | Not Active | Not Active | Not Active | Not Active | – | – | – | – | –
c1ccc2c(c1)Nc1ccccc1S2 [PHENOTHIAZINE] | Not Active | Not Active | Not Active | Not Active | Not Active | Not Active | Not Active | – | – | – | – | – | – | – | –
CC[C@H]1OC(=O)[C@H](C)[C@@H](O[C@H]2C[C@@](C)(OC)[C@@H](O)[C@H](C)O2)[C@H](C)[C@@H](O[C@@H]2O[C@H](C)C[C@H](N(C)C)[C@H]2O)[C@](C)(O)C[C@@H](C)C(=O)[C@H](C)[C@@H](O)[C@]1(C)O [ERYTHROMYCIN] | Not Active | Not Active | Not Active | Not Active | Not Active | Not Active | Not Active | – | – | – | – | – | – | – | –
NS(=O)(=O)c1cc(C(=O)O)c(NCc2ccco2)cc1Cl [FUROSEMIDE] | Not Active | Not Active | Not Active | Not Active | Not Active | Not Active | Not Active | – | – | – | – | – | – | – | –
COc1cc([C@@H]2c3cc4c(cc3[C@H](O)[C@H]3COC(=O)[C@H]23)OCO4)cc(OC)c1OC [PODOFILOX] | Not Active | Not Active | Not Active | Not Active | Not Active | Not Active | Not Active | – | – | – | – | – | – | – | –
CC(N)Cc1c[nH]c2ccc(OCc3cccs3)cc12 (centres undefined) [BW-723C86] | Not Active | – | – | Not Active | – | Not Active | Not Active | – | – | – | 641 nM | 298 nM | 3.47 µM | 3.08 µM | –
O=C(O)COC(=O)Cc1ccccc1Nc1c(Cl)cccc1Cl [ACECLOFENAC] | Not Active | Not Active | Not Active | Not Active | Not Active | Not Active | Not Active | – | – | – | – | – | – | – | –
COC(=O)Nc1nc2ccc(Sc3ccccc3)cc2[nH]1 [FENBENDAZOLE] | Not Active | Not Active | Not Active | Not Active | Not Active | – | – | – | – | – | – | – | – | – | 5.99 µM
